The test system of experiment [1] is K1 cells. In words: Annexin V-FITC/PI apoptosis assay by flow cytometry. As to conditions: 10 μM nutlin-3a, 25 μM GSK2830371, or both, 72 hours. In kind it is cell-based. On the procedure:
(§1) TPC1, K1, HCT116, MCF7, SJSA, and HEK293FT cells were cultivated in RPMI (TPC1, SJSA), DMEM (K1, MCF7, HEK293FT), and McCoy's (HCT116) media (Gibco, Thermo Fisher Scientific) supplemented with 10% fetal bovine serum (Peak Serum) and 1% antibiotic-antimycotic mixture (Gibco). Cells were plated a day before the treatment and maintained in a humidified atmosphere with 5% of CO2 at 37° C. Both TPC1 and K1 lines were gifts from Dr. Rebecca Schweppe, University of Colorado Anschutz Medical Campus (CU-AMC). Cell line identity has been verified by short tandem repeats profiling at the Cell Technologies Shared Resource, CU-AMC. Colorectal cancer organoid cultures (CRC172) were obtained from the Enteroid Stem Cell Core facility at CU-AMC.
(§2) The fraction of apoptotic cells was determined by Annexin V-FITC/PI assay. Briefly, cells harvested by trypsinization were resuspended in Annexin-V binding buffer (10 mM HEPES pH 7.4, 140 mM NaCl, 2.5 mM CaCl2)). Approximately 2*10^5 cells were labeled with Annexin-V-FITC (Invitrogen) and PI (10 μg/ml, Millipore-Sigma) for 15 minutes in the dark before flow cytometric analysis (Accuri C6, Becton Dickinson). To analyze mitochondrial membrane potential (44m) cells were trypsinized and resuspended in cultivation media. An aliquot of approximately 5*10^5 cells per sample was mixed with tetramethylrhodamine, ethyl ester, perchlorate (TMRE, Thermo Fisher, 100 nM final concentration) solution, incubated for 10 minutes in the dark, and analyzed by flow cytometer.

Experiment [2] relates to TPC1 cells. The description is as above. In kind it is cell-based. As to conditions: 10 μM nutlin-3a, 25 μM GSK2830371, or both, 72 hours. On the procedure:
as §1, §2

In experiment [3] the test system is p53. As to the kind of experiment: Western blot of p53 in thyroid carcinoma cells. The format is cell-based. As to conditions: TPC1 and K1 cells; 10 μM nutlin-3a, 25 μM GSK2830371; 24 hours. On the procedure:
(§3) Following a brief sonication (2.5W, 5 sec) and heat denaturation (90° C., 5 min), total protein concentration in whole cell lysates was measured by a BCA Protein Assay Kit (Pierce, Thermo Fisher Scientific). 20 μg of protein per sample was resolved by SDS-PAGE and transferred onto a 0.45 μm PVDF membrane (0.2 μm for ATF3 detection). Membranes were incubated in blocking buffer (5% fat-free milk in wash buffer—20 mM Tris pH 7.6, 150 mM NaCl, 0.2% Tween 20) for an hour at RT and o/n at 4° C. with the primary antibody diluted in a fresh blocking buffer. Next day membranes were washed three times for 10 min in the wash buffer, incubated with HRP-conjugated secondary antibody for an hour at RT, and washed again three times in the wash buffer. SuperSignal West Pico Plus Chemiluminescence Substrate (Pierce) was used for detection and digital images were acquired using an ImageQuant LAS 4000 (GE Healthcare Life Sciences).
(In western blotting, separated proteins are transferred to a membrane and probed.)

The subject of experiment [4] is K1 cells. As to the kind of experiment: RNA-seq transcriptome analysis (DESeq2). In kind it is cell-based, Human. Particulars: for differentially expressed mRNAs versus vehicle: nutlin 10 μM, GSK2830371 25 μM, or both, 24 hours. Here is the method:
(§4) TPC1 and K1 cells were plated at 2*104/cm2 and treated for 24 hours as indicated. Following the treatment period, cells were washed with ice-cold PBS and lysed in TRI Reagent (Millipore Sigma). Quality of the extracted RNA was assessed by Agilent Bioanalyzer 2100 using RNA 6000 Pico chips (Agilent). Single-end 150 bp sequencing of the poly-A (+)-enriched RNA was carried out on the Illumina HiSeq 4000 platform by the Genomics Core facility at the University of Colorado Anschutz.
(§5) Quality of the sequencing data was analyzed using FASTQC (version 0.11.2, available at the website www.bioinformatics.babraham.ac.uk/projects/fastqc and presence of common sequencing contaminants was assessed by FastQ Screen (v0.4.4) available at the website www.bioinformatics.babraham.ac.uk/projects/fastq_screen/. Bases with low quality (Q<10) were 3′ end trimmed and reads shorter than 30 nt were discarded using the Fastx toolkit (v0.0.13.2). Reads were aligned to a GRCh37/hg19 Human reference using TopHat2 (v2.0.13,-b2-sensitive-keep-fasta-order-no-coverage-search-max-multihits 10-library-type fr-firststrand) (Kim et al., 2013) with the UCSC hg19 GTF annotation file provided in the iGenomes UCSC hg19 bundle available at the website: support.illumina.com/sequencing/sequencing_software/igenome.html. Aligned reads with MAPQ<10 quality were removed using SAMtools (v0.1.19). Alignments were then sorted by coordinates, and duplicates were identified using Picard (v1.129). Quality assessment of final mapped reads was conducted using RSeQC (v2.6) (Wang et al., 2012). Gene-level counts were obtained using HTSeq (v0.6.1) (Anders et al., 2015) with the following options (-stranded=reverse -minaqual=10-type=exon-idattr=gene_id_mode=intersection-nonempty) using the iGenomes UCSC hg19 GTF annotation file. Differential gene expression was evaluated using DESeq2 (version 1.6.3) (Love et al., 2014) in R (version 3.1.0), using q<0.05 (FDR<5%) and fold-change>1.5 (Up) or <1/1.5 (Down) as cutoffs for differentially expressed genes. Genome browser snapshots were generated from bedGraph or tgv files using IGV genome viewer (v2.8.10) (Thorvaldsdottir et al., 2013).

For experiment [5], the system named is TPC1 cells. In words: RNA-seq transcriptome analysis (DESeq2). As to conditions: for differentially expressed mRNAs versus vehicle: nutlin 10 μM, GSK2830371 25 μM, or both, 24 hours. The format is cell-based, Human. Here is the method:
as §4, §5

Experiment [6] deals with ATF3 and ATF4 mRNA. As to the kind of experiment: ATF3 and ATF4 mRNA induction (RNA-seq, Q-RT-PCR). In kind it is cell-based, Human. As to conditions: TPC1, K1, and four other cell lines; 24 hours. The text has this:
After indicated treatments, cells were washed with PBS, total RNA was extracted using Trizol substitute (38% Phenol, saturated, pH 4.3, 0.8 M guanidine thiocyanate, 0.4 M ammonium thiocyanate, 0.1 M sodium acetate, pH 5.0, 5% glycerol), and converted to cDNA with High-Capacity cDNA Reverse Transcription Kit (Thermo Fisher). Next, diluted cDNA was used in quantitative PCR reaction using SYBR Select Master Mix for CFX (Thermo Fisher). Detected mRNA levels were normalized to 18s rRNA values.
TPC1 and K1 cells were plated at 2*104/cm2 and treated for 24 hours as indicated. Following the treatment period, cells were washed with ice-cold PBS and lysed in TRI Reagent (Millipore Sigma). Quality of the extracted RNA was assessed by Agilent Bioanalyzer 2100 using RNA 6000 Pico chips (Agilent). Single-end 150 bp sequencing of the poly-A (+)-enriched RNA was carried out on the Illumina HiSeq 4000 platform by the Genomics Core facility at the University of Colorado Anschutz. […]

The subject of experiment [7] is ATF3 and ATF4 gene loci. In words: GRO-seq transcriptional activity at ATF3 and ATF4 gene loci. In kind it is cell-based. Particulars: 60 minutes of nutlin treatment (10 μM); three different cell lines.
Experiment [8] deals with TPC1 and HCT116. In words: Polysome profiling (polysome/monosome ratio). In kind it is cell-based. As to conditions: 24 hours. Here is the method: TPC1 and HCT116 were plated at 6*104/cm2 on 143 cm2 dishes, cultivated o/n, and treated accordingly. Ten minutes before the harvest cultivation media was supplemented with cycloheximide (CHX) at final concentration of 100 μg/ml. Next, cells were washed twice with ice-cold PBS with 100 μg/ml CHX and lysed in polysome preparation lysis buffer (20 mM HEPES pH 7.4, 15 mM MgCl2, 200 mM NaCl, 1% Triton X-100, 100 μg/ml CHX, 2 mM DTT, and 100U SuperaseIN). Lysates were cleared of debris by centrifugation at 20,000g, 4° C. for 10 minutes. Total nucleic acid content in lysates was measured by absorbance at 260 nm and used for sample concentration normalization. Next, 500 μl of the lysate was loaded on 10-60% sucrose gradients in SW41 tubes in lysis buffer lacking Triton X-100. These gradients were prepared using a BioComp system and chilled to 4° C. before use. Samples were ultracentrifuged at 36,000 rpm for 3 hours and 10 min, at 4° C., then samples were fractionated using a BioComp system, monitoring absorbance at 260 nm while collecting fractions of approximately 0.4 ml each.

Experiment [9] has as its system cell viability. In words: Cell viability after single-agent treatment. The format is cell-based.
In experiment [10] the test system is PPM1D. In words: Western blot of PPM1D expression. The format is cell-based. Particulars: 25 μM GSK2830371; 24 hours. On the procedure: as §3, with “Protein samples were prepared with cells washed twice with PBS and lysed in modified Laemmli buffer (Laemmli, 1970) (1% w/v SDS, 10% w/v glycerol, 100 mM Tris pH 7.2, protease (complete Mini, Roche) and phosphatase (PhosSTOP, Roche) inhibitors). Following” for “Following”

Experiment [11] concerns diverse cell types. As to the kind of experiment: Annexin V-FITC/PI apoptosis assay, elF2α plus MDM2 inhibition. In kind it is cell-based. On the procedure: as §1
as §2, with “To analyze mitochondrial membrane potential (44m) cells were trypsinized and resuspended in cultivation media.” left out

The mark [12] stands for this setting: FDR<5%, adjusted fold change>1.5.

Regarding `COc1ccc(C2=N[C@@H](c3ccc(Cl)cc3)[C@@H](c3ccc(Cl)cc3)N2C(=O)N2CCNC(=O)C2)c(OC(C)C)c1` [nutlin-3a], the “apoptosis (Annexin V-FITC/PI)” value in experiment [1] and in experiment [2] was “does not cause p53-dependent apoptosis” each time. For the same compound, in experiment [3], the p53 stabilization entry was “stabilizes p53”. Further, the “genes induced by both nutlin and nutlin+GSK2830371” value in experiment [4] (setting [12]) worked out at 367 genes; in experiment [5] (setting [12]), 1924 genes. For the same compound, the “differentially expressed mRNAs versus vehicle” value in experiment [4] and in [5] was “hundreds of mRNAs significantly upregulated or downregulated” in each case. The “ATF3 induction at the mRNA level” value in [6] was “clear induction of ATF3”. Also, in [6], the “ATF4 induction at the mRNA level” value was “not ATF4”. The “transactivation of ATF3 (GRO-seq)” value in experiment [7] was “rapid transactivation of ATF3”. Further, the “transactivation of ATF4 (GRO-seq)” value in experiment [7] is reported as “not ATF4”. Also, in [8], the polysome/monosome ratio result was “decreases in the polysome/monosome ratio”. In [9], the “effects on cell viability when administered alone” value is recorded as “limited effects on cell viability”.

`Cc1ncc(Cl)cc1NCc1ccc(C(=O)N[C@@H](CC2CCCC2)C(=O)NC2CC2)s1` [GSK2830371]: the “apoptosis (Annexin V-FITC/PI)” value in experiment [1] and in experiment [2] was “does not stabilize p53 or induce apoptosis” throughout. For the same compound, the p53 stabilization entry in experiment [3] is on record as “does not stabilize p53”. Further, the PPM1D expression result in experiment [10] is reported as “reduces PPM1D expression”. In addition, the “differentially expressed mRNAs versus vehicle” value in [4] and in experiment [5] was “had little impact on the transcriptome” in each case. For the same compound, the polysome/monosome ratio result in [8] is “decreases in the polysome/monosome ratio”. Besides, the “effects on cell viability when administered alone” value in experiment [9] was “limited effects on cell viability”.

For the compound `O=C(/C=C/c1ccccc1)NC(NC(=S)Nc1ccc(Cl)cc1)C(Cl)(Cl)Cl` (stereo not shown) [sal003], the “synergy with small molecule inhibitors of MDM2 to elicit p53-dependent cell death” value in experiment [11] is given as “synergize with small molecule inhibitors of MDM2 to elicit p53-dependent cell death”.

The record behind these values is patent publication US20250127777A1, “DUAL INHIBITION OF MDM2 AND EIF2-ALPHA INDUCES CELL DEATH IN MULTIPLE CANCER CELL TYPES” (The Regents of the University of Colorado, A Body Corporate, priority 2022, published 2025).
